Key:
Format in all cases: cell-based, human
[1] = tested on: MB231Br (breast cancer metastasis to brain); assay: Drug screening of MB231Br tumor foci on OBSCs
[2] = tested on: LN229 (established GBM line); assay: Drug screening of LN229 tumor foci on OBSCs
Procedure: (§1) Tumor cells (0.17 μL, 25,000 cells) were seeded onto OBSCs 2h after slicing, with one tumor seeded in the center of each hemisphere for a total of two tumor foci per OBSC. BSM was changed 24h after slicing. Fluorescence images were taken 0 h, 24 h, and 96 h post-seeding for normalization of tumor size. Bioluminescence readouts were also taken at 0 h, 24 h, and 96 h post seeding for assessment of cell viability. Luciferin was added underneath the culture insert and allowed to incubate for 10 min before bioluminescence measurement on an AMI optical imaging system.
(§2) Tumor cells were seeded onto OBSCs 2h after slicing as described above. One day after tumor seeding, six concentrations of each drug were diluted in the media underneath each culture insert, or XRad was applied using an X-Rad 320 Precision X-ray machine (n = 4 tumor foci per concentration; n ≥ 24 tumor foci per drug per cell line). Three days after treatment, the bioluminescence of live tumor cells was measured using an AMI optical imager (Spectral Instruments) and dose-response curves were generated. Tumor survival was normalized to day one tumor fluorescence and compared to an untreated control group.
(§3) Several weighted parameters were factored into an overall drug sensitivity score.
(§4) For DSS parameters 1–6, therapeutic windows were calculated by comparing OBSC toxicity and tumor response at the doses where tumor kill passed through the DSS parameter (Table S1 and S3). For DSS parameter 7, the therapeutic window was calculated by comparing the slopes through the tumor EC50 and the OBSC tox EC50. For DSS parameter 8, the therapeutic window was calculated by comparing the areas under tumor kill and OBSC tox curves. Normalized therapeutic window ratios for DSS parameters 1–8 within each drug-tumor-OBSC interaction were calculated in the following manner: within each window, values ranged from +1 to −1, where values approaching +1 signify increasing tumor kill relative to normal tissue toxicity, and values approaching −1 indicate agents where tumors remained highly viable while toxicity to the normal OBSC tissue was elevated. DSS parameters 9–11 were determined based on the behavior of the tumor in response to the drug, as defined above.
(§5) All individually weighed parameters were added together to generate the DSS. Overall DSS from 0 to 100 signify increasing efficacy in tumor kill relative to OBSC toxicity, while scores from 0 to −100 describe scenarios in which tumors thrive more effectively than OBSCs for a given treatment. Dose-response values were calculated via linear interpolation of raw data, not from best-fit curve equations.

[3] = tested on: U373WT (wild-type established GBM line); assay: Drug screening of U373WT tumor foci on OBSCs
Procedure: as §1, §2, §3, §4, §5

[4] = tested on: U373KO (RAD18 knockout of U373WT via CRISPR); assay: Drug screening of U373KO tumor foci on OBSCs; details: U373 KO on OBSCs
Procedure: as §1, §2, §3, §4, §5

[5] = tested on: GBM8 (high-passage patient-derived GBM line); assay: Drug screening of GBM8 tumor foci on OBSCs
Procedure: as §1, §2, §3, §4, §5

[6] = tested on: MS21 (low-passage patient-derived GBM line); assay: Drug screening of MS21 tumor foci on OBSCs
Procedure: as §1, §2, §3, §4, §5

[7] = tested on: PDIPG (low-passage pediatric patient-derived line); assay: Drug screening of PDIPG tumor foci on OBSCs
Procedure: as §1, §2, §3, §4, §5

[8] = area under the dose-response curve, trapezoidal rule
[9] = dose required to kill 10% of the tumor
[10] = dose required to kill 25% of the tumor
[11] = dose required to kill 75% of the tumor

SMILES: O=NN(CCCl)C(=O)NC1CCCCC1 [Lomustine]
- EC50 ([1]; Homo sapiens, MB231BR on OBSCs, dose required to kill 50% of the tumor): 1.61 mM
- EC90 ([1]; Homo sapiens, MB231BR on OBSCs, dose required to kill 90% of the tumor): 1.94 mM
- IC50 ([1]; Homo sapiens, MB231Br on OBSCs, dosed day 1, survival via bioluminescence day 4, linear interpolation): 1.61 mM
- Killing at highest dose ([1]; MB231BR on OBSCs): 9.70E-01 fraction of tumor population killed
- AUC ([1]; MB231BR on OBSCs, area under the dose-response curve, trapezoidal rule): 1.96E+03
- EC10 ([1]; MB231BR on OBSCs, dose required to kill 10% of the tumor): 1280 µM
- EC25 ([1]; MB231BR on OBSCs, dose required to kill 25% of the tumor): 1400 µM
- EC75 ([1]; MB231BR on OBSCs, dose required to kill 75% of the tumor): 1820 µM
- Slope ([1]; MB231BR on OBSCs, slope through the EC50): -1.20E-03
- Killing at highest dose [2]: 1.00E+00 fraction of tumor population killed
- EC50 ([2]; Homo sapiens, LN-229, dose required to kill 50% of the tumor): 960 µM
- EC90 ([2]; Homo sapiens, LN-229, dose required to kill 90% of the tumor): 1.78 mM
- IC50 ([2]; Homo sapiens, LN-229, dosed day 1, survival via bioluminescence day 4, linear interpolation): 960 µM
- AUC [2, 8]: 9.70E+02
- EC10 [2, 9]: 417 µM
- EC25 [2, 10]: 758 µM
- EC75 [2, 11]: 1440 µM
- Slope ([2]; slope through the EC50): -1.24E-03
- EC50 ([3]; Homo sapiens, U373 MG, U373 WT on OBSCs, dose required to kill 50% of the tumor): 665 µM
- EC90 ([3]; Homo sapiens, U373 MG, U373 WT on OBSCs, dose required to kill 90% of the tumor): 1.96 mM
- IC50 ([3]; Homo sapiens, U373 MG, U373 WT on OBSCs, dosed day 1, survival via bioluminescence day 4, linear interpolation): 665 µM
- Killing at highest dose ([3]; U373 WT on OBSCs): 9.10E-01 fraction of tumor population killed
- AUC ([3]; U373 WT on OBSCs, area under the dose-response curve, trapezoidal rule): 8.89E+02
- EC10 ([3]; U373 WT on OBSCs, dose required to kill 10% of the tumor): 139 µM
- EC25 ([3]; U373 WT on OBSCs, dose required to kill 25% of the tumor): 554 µM
- EC75 ([3]; U373 WT on OBSCs, dose required to kill 75% of the tumor): 1380 µM
- Slope ([3]; U373 WT on OBSCs, slope through the EC50): -2.24E-03
- DSS (drug sensitivity score) ([3]; U373 WT, scale -100 to +100, tumor kill relative to OBSC toxicity): 64
- EC50 ([4]; Homo sapiens, U373 MG, dose required to kill 50% of the tumor): 607 µM
- EC90 ([4]; Homo sapiens, U373 MG, dose required to kill 90% of the tumor): 1.83 mM
- IC50 ([4]; Homo sapiens, U373 MG, dosed day 1, survival via bioluminescence day 4, linear interpolation): 607 µM
- Killing at highest dose [4]: 9.70E-01 fraction of tumor population killed
- AUC [4, 8]: 8.35E+02
- EC10 [4, 9]: 83.3 µM
- EC25 [4, 10]: 208 µM
- EC75 [4, 11]: 1460 µM
- Slope ([4]; slope through the EC50): -5.60E-04
- Killing at highest dose ([5]; GBM8 on OBSCs): 1.00E+00 fraction of tumor population killed
- AUC ([5]; GBM8 on OBSCs, area under the dose-response curve, trapezoidal rule): 1.54E+01
- EC10 ([5]; GBM8 on OBSCs, dose required to kill 10% of the tumor): 0.685 µM
- EC25 ([5]; GBM8 on OBSCs, dose required to kill 25% of the tumor): 1.71 µM
- EC75 ([5]; GBM8 on OBSCs, dose required to kill 75% of the tumor): 5.45 µM
- Slope ([5]; GBM8 on OBSCs, slope through the EC50): -1.46E-01
- EC50 ([5]; Homo sapiens): 3.43 µM
- EC90 ([5]; Homo sapiens): 8.71 µM
- IC50 ([5]; Homo sapiens): 3.4 µM
- EC50 ([6]; Homo sapiens): 1.55 mM
- EC90 ([6]; Homo sapiens): 1.99 mM
- IC50 ([6]; Homo sapiens): 1.55 mM
- Killing at highest dose ([6]; MS21 on OBSCs): 9.10E-01 fraction of tumor population killed
- AUC ([6]; MS21 on OBSCs, area under the dose-response curve, trapezoidal rule): 1.61E+03
- EC10 ([6]; MS21 on OBSCs, dose required to kill 10% of the tumor): 1120 µM
- EC25 ([6]; MS21 on OBSCs, dose required to kill 25% of the tumor): 1280 µM
- EC75 ([6]; MS21 on OBSCs, dose required to kill 75% of the tumor): 1830 µM
- Slope ([6]; MS21 on OBSCs, slope through the EC50): -9.20E-04
- EC50 ([7]; Homo sapiens): 688 µM
- EC90 ([7]; Homo sapiens): 1.88 mM
- IC50 ([7]; Homo sapiens): 688 µM
- Killing at highest dose ([7]; PDIPG on OBSCs): 9.30E-01 fraction of tumor population killed
- AUC ([7]; PDIPG on OBSCs, area under the dose-response curve, trapezoidal rule): 9.11E+02
- EC10 ([7]; PDIPG on OBSCs, dose required to kill 10% of the tumor): 354 µM
- EC25 ([7]; PDIPG on OBSCs, dose required to kill 25% of the tumor): 425 µM
- EC75 ([7]; PDIPG on OBSCs, dose required to kill 75% of the tumor): 1310 µM
- Slope ([7]; PDIPG on OBSCs, slope through the EC50): -4.80E-04
